The subject of one data set is S. pseudopneumoniae. The data set is described as follows: MIC against S. pseudopneumoniae. Type of data set: cell-based. To be noted: Streptococcus pseudopneumoniae. As to the method: (§1) Minimum inhibitory concentration (MIC) assays for the antibacterial activities of the compounds were performed according to the standard […] method of the Clinical and Laboratory Standards Institute of America. MIC testing of drug-resistant S. pneumoniae, drug-resistant S. aureus, streptococci and antimicrobial combination was also performed using the same method. Briefly, the drugs were serially diluted 2-fold into eight wells with C+Y medium, yielding final concentrations ranging from […]. Then 10^6 CFU bacteria were added to each well. Inoculated medium containing 1% DMSO served as a bacterial growth control, whereas uninoculated medium served as a sterility control. The plates were incubated at 37°C for 12–16 h. […] The experiment was repeated three times.

Another data set is described as follows: Cytotoxicity assay (MTT). It is filed as cell-based. To be noted: African green monkey. The method, then: The cytotoxicity of the drugs to Vero cells (African green monkey kidney cells) was detected as previously described (Huang et al., [2012]) with minor modifications. In 96-well cell culture plates, the cells (~10^3 cells per well) were exposed to the serially diluted drugs for 48 h. Then, relative cell numbers were assayed by co-incubation with 3-(4, 5-dimethylthiazol-2-yl)-2, 5-diphenyltetrazolium bromide for 4 h at 37°C in 5% CO2. Purple formazan salts were dissolved with DMSO after incubation. The absorbance of each well was measured at 595 nm and then converted to percentages of the control (cells treated with 1% DMSO). The concentration of the derivatives with 50% cytotoxicity for Vero cells (CC50) was calculated using GraphPad Prism 5 (San Diego, CA).

The test system of the next data set is S. aureus. Description: Checkerboard test with penicillin against S. aureus. It is filed as cell-based, Staphylococcus aureus. The settings on record: for MIC: Staphylococcus aureus; for reduction of MIC in combination with PEN: four strains of MRSA. As to the method: as §1
The antimicrobial effects of different combinations of two antimicrobial agents were assayed using the checkerboard test (Bajaksouzian et al., [1997]). Each experiment was repeated thrice. The in vitro interaction between the five drugs with PEN was quantified by the fractional inhibitory concentration (FIC). The FIC index (FICI) was calculated using the following formula:
(§2) (2) FIC=FICA+FICB=[A]/MICA+[B]/MICB
(§3) where [A] and [B] are the concentrations of drugs A and B, respectively; MICA and FICA are the MIC and FIC of drug A for the organism, respectively; and MICB, and FICB are the MIC and FIC of drug B for the organism, respectively. The FIC index obtained was interpreted as follows: =0.5, synergy; FIC > 2.0, antagonism (Gupta and Kohli, [2003]).

A further data set has as its system S. pneumoniae. The data set is described as follows: Checkerboard test with erythromycin or tetracycline against S. pneumoniae. Type of data set: cell-based, Streptococcus pneumoniae. As to the method: The antimicrobial effects of different combinations of two antimicrobial agents were assayed using the checkerboard test (Bajaksouzian et al., [1997]). Each experiment was repeated thrice. […] The FIC index (FICI) was calculated using the following formula:
as §2, §3

Data set [1] has as its system clinical S. pneumoniae 19F (CMCC31693). The data set is described as follows: Mouse colonization model, serotype 19F. Type of data set: in vivo, BALB/c mice. The settings on record: for Mean log CFU at site of infection: 19F; for reduction in 19F bacterial numbers: at 24 h. The method, then:
In colonization models, the mice were intranasally challenged by 20 μL of clinical drug-resistant strains (pneumococcal serotype 19F or 19A, 1.5 × 10^8 CFU). An hour later, the mice were intraperitoneally injected with 100 μL drugs (2 × MIC) alone or in combination with PEN (2 × MIC). These injections were continued thrice a day for 3 d. Nasal wash and lung tissues were obtained to analyze the bacteria load at 24, 48, and 72 h after drug infection. Then 100 μL aliquots of the samples diluted were plated on blood agar plates. The colonies were counted after incubation overnight at 37°C with 5% CO2.

Setting [2] is: in combination with Erythromycin.
Where [3] appears, read: in combination with Tetracycline.
Where [4] appears, read: NW (nasal wash), 24 h, i.p. three times a day for 3 days, control 6.72.

The structures appear in SMILES notation. Where two headings read alike, the source gives them in different places. Marks after values point to notes of the source that are not given here.

On to `CC(C)=CCCC1=CC(=O)c2c(O)ccc(O)c2C1=O` [Compound 3, Deoxyshikonin], for which the MIC was 136 µg/mL in the data set on S. pseudopneumoniae; 34 µg/mL in the data set on S. aureus (ATCC29213, read-out: MIC, Alone); 68 µg/mL in the data set on S. aureus (MRSA, read-out: MIC, Alone); 34 µg/mL with S. aureus (read-out: MIC, Alone). Further, in the data set “Cytotoxicity assay (MTT)” (Vero cells), the midpoint of cytotoxicity, the CC50 at 48 h, lay at 4.68 mM. Besides, in the data set with S. aureus (MRSA8548991, agent alone), the “MIC, Alone” value was 34 µg/mL. In the data set with S. aureus, the “reduction of MIC in combination with PEN” value is 2 fold. Besides, the FICI is reported as 0.37 in the data set on S. pneumoniae (setting [2]) and 0.125 in the data set on S. pneumoniae (setting [3]). Also, the Outcome result in the data set on S. pneumoniae (setting [2]) was “Synergy (=0.5, synergy)”; with S. pneumoniae (setting [3]), “Synergy (=0.5, synergy)”. The “Mean log CFU at site of infection” value in data set [1] (Lung, 24 h, control 2.82) was 1 (<0.0001)^b log CFU; in data set [1] (Lung, 48 h, control 7.57) it was 1 (0.001)^b log CFU; in data set [1] (Lung, 72 h, control 4.95), 2.5 (<0.0001)^b log CFU; in data set [1] (setting [4]), 3.30 log CFU; in data set [1] (NW, 48 h, control 6.27), 4.6 (0.0002)^b log CFU; in data set [1] (NW, 72 h, control 7.09), 5.52 (<0.0001)^b log CFU. Besides, in data set [1], the “reduction in 19F bacterial numbers” value is “one-log reduction”.
Consider `CCCCCCCCCCCCOC(=O)c1cc(O)c(O)c(O)c1` [Compound 5, Dodecyl gallate], for which the minimum inhibitory concentration (MIC) with S. pseudopneumoniae (S. pseudopneumoniae clinical isolate, 10^6 CFU/ml, read-out: MIC) is 42 µg/mL; in the data set with S. aureus (ATCC29213, S. aureus ATCC29213, agent alone, read-out: MIC, Alone) it was 168 µg/mL; in the data set with S. aureus (MRSA8506305, agent alone, read-out: MIC, Alone), 337 µg/mL; with S. aureus (MRSA8548991, agent alone, read-out: MIC, Alone) it was 84.4 µg/mL; in the data set with S. aureus (MRSA, MRSA 8569082, agent alone, read-out: MIC, Alone), 84.4 µg/mL. In addition, half-maximal cytotoxicity in “Cytotoxicity assay (MTT)” (Vero cells (African green monkey kidney cells)) (CC50 at 48 h) was put at 6.45 mM. The “reduction of MIC in combination with PEN” value in the data set with S. aureus stood at 2 fold. The values for the FICI in the data set on S. pneumoniae (setting [2]) and with S. pneumoniae (setting [3]) were 0.31 and 0.18, respectively. Besides, the Outcome entry in the data set with S. pneumoniae (setting [2]) is recorded as “Synergy (=0.5, synergy)”; with S. pneumoniae (setting [3]), “Synergy (=0.5, synergy)”. In addition, the “Mean log CFU at site of infection” value is reported as 3.9 (0.0001)^b log CFU in data set [1] (Lung, 24 h, control 2.82); 3 (0.006)^b log CFU in data set [1] (Lung, 48 h, control 7.57); 2.8 (<0.0001)^b log CFU in data set [1] (Lung, 72 h, control 4.95); 2.16 log CFU in data set [1] (setting [4]); 5.55 log CFU in data set [1] (NW, 48 h, control 6.27); 5.82 (<0.0001)^b log CFU in data set [1] (NW, 72 h, control 7.09). Besides, in data set [1], the “reduction in 19F bacterial numbers” value is reported as “one-log reduction”.

The MIC is the smallest concentration in the dilution series that meets the test's criterion for growth inhibition. As usually defined, the CC50 is the concentration giving 50% cytotoxicity.

The values are drawn from PMC4438233, “Antibacterial effects of Traditional Chinese Medicine monomers against Streptococcus pneumoniae via inhibiting pneumococcal histidine kinase (VicK)” (Frontiers in Microbiology, 2015).
